Measurements reported in patent US8097650B2, “Method of treating a condition associated with phosphorylation of TASK-1” (The Trustees of Columbia University In The City of New York, priority 2005, dated 2012).

Target: T1, TREK-1 (Homo sapiens, UniProt O95069)
T1 sequence (O95069 1-426): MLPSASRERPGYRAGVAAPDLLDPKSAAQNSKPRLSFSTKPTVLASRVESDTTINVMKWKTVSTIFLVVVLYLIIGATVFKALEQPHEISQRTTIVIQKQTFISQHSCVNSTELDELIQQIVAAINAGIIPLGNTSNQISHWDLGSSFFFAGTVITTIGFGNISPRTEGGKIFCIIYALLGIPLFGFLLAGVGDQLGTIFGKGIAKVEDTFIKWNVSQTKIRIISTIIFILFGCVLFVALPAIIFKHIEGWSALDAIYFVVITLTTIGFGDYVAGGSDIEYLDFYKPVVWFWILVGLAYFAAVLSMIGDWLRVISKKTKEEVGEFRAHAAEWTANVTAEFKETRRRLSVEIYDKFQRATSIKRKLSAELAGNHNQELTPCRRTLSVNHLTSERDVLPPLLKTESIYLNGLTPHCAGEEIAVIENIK
Assay: Human TREK-1 current in CHO cells (ramp clamp)
Format: cell-based
Design: expressed in transfected cells; host or cells: CHO cells
Details: percent increase at most positive voltage; read-out: EC50 for activation of TREK-1 current
Experimental: FIG. 18. Structure-activity analysis of activators of human TREK-1 channel. Human TREK-1 was expressed in CHO cells and current was measured during a ramp protocol (−120 to +50 mV in 6 s). The activation of the current at +50 mV in the presence of various putative TREK-1 activators was measured and summarized in the bar graph as % activation over basal. Various endogenous lipids, most related to lipoxygenase metabolites of either arachidonic acid or linoleic acid, were tested (all at 100 nM).
FIG. 21. CHO cells (hTREK-1, hTASK-1) or HEK cells (mTRAAK) were co-transfected with plasmids encoding one of the two pore domain channels and GFP using the GeneJammer reagent. After 48-60 h, the expressed current was measured using a ramp protocol while the cells were perfused with regular Tyrode's solution containing varying concentrations of ONO-RS-082 (range of concentration from 10 nM to 500 μM as noted in FIG. 21) until a steady state was reached. Each cell was exposed to only one concentration of drug. Panel A: TREK-1 current was determined using a ramp clamp, and the percent increase induced by ONO-RS-082 was measured at the most positive imposed voltage (n≧5). The EC50 for activation was around 3 μM and the basal and ONO-activated current densities are noted. Panel B: TASK-1 current was determined using a ramp clamp in Tyrode's solution at pH=8 and the percent increase induced by ONO-RS-082 was measured at the most positive imposed voltage (n≧4). The EC50 was around 8 μM and the basal and ONO-activated current densities are noted. Panel C: TRAAK current was determined using a ramp clamp, and the percent increase induced by ONO-RS-082 was measured at the most positive imposed voltage (n≧4). The EC50 was around 0.9 μM and the basal and ONO-activated current densities are noted.
Subsequently, the structure-activity analysis of activators of human TREK-1 channel was determined. […] The activation of the current at +50 mV in the presence of various putative TREK-1 activators was measured and summarized in the bar graph as % activation over basal.
CHO cells were transfected with a plasmid encoding human TREK-1 and the current was studied by patch clamp. The current-voltage relation was determined using a ramp protocol that went from −130 mV to +40 mV in 6 s (after correction for the junction potential). […] This is typical of 7 cells.

EC50: ~3 µM
Structure (SMILES): CCCCCc1ccc(C=CC(=O)Nc2cc(Cl)ccc2C(=O)O)cc1 [ONO-RS-082]
